Activity calls are given as the source filed them. No cut-off for these calls is given here.
Columns and labels:
[1] = Antioxidant activity assessed as ferric ion reducing activity at 2 nM to 200 uM by FRAP assay; format: physicochemical; details: 0.002 µM
[2] = Cytotoxicity against human HL60 cells assessed as cell viability up to 50 uM after 4 hrs by fluorescence microscopy; format: cell-based; details: hl-60, 4 h
[3] = test system: HL-60; experiment: Protection against H2O2-induced human HL60 cells assessed as reduction in DNA damage at 2.5 uM after 30 mins by comet assay; format: functional, cell-based
[4] = test system: HL-60; experiment: Protection against H2O2-induced human HL60 cells assessed as reduction in DNA damage at 1.25 uM after 30 mins by comet assay; format: functional, cell-based
[5] = test system: Trypanosoma brucei brucei; experiment: Antiparasitic activity against Trypanosoma brucei brucei; format: functional, organism-based
[6] = test system: HL-60; experiment: Protection against H2O2-induced human HL60 cells assessed as reduction in DNA damage at 10 uM after 30 mins by comet assay; format: functional, cell-based
[7] = Cytotoxicity against human HL60 cells assessed as cell viability up to 50 uM after 24 hrs by fluorescence microscopy; format: cell-based; details: hl-60, 24 h
[8] = Cytotoxicity against human HL60 cells assessed as induction of DNA damage at 1.25 to 10 uM after 24 hrs by fluorescence microscopy; format: cell-based; details: hl-60, 24 h
[9] = test system: HL-60; experiment: Protection against H2O2-induced human HL60 cells assessed as reduction in DNA damage at 50 uM after 30 mins by comet assay; format: functional, cell-based

Row | Compound | Activity [1] | Activity [2] | Activity [3] | Activity [4] | inhibition [5] | Activity [6] | Activity [7] | Activity [8] | Activity [9] | IC50 [5]
1 | Cc1cc(O[C@@H]2O[C@@H](C)[C@H](O)[C@@H](O)[C@H]2O)c2c3c(c(O)cc2c1)C(=O)c1c(O[C@@H]2O[C@@H](C)[C@H](O)[C@@H](O)[C@H]2O)cccc1C3=O | Active | Non-toxic | Active | Active | inactive | Active | Toxic | Non-toxic | – | –
2 | Cc1cc(O[C@@H]2O[C@@H](C)[C@H](O)[C@@H](O)[C@H]2O)c2c3c(ccc2c1)C(=O)c1c(O[C@@H]2O[C@@H](C)[C@H](O)[C@@H](O)[C@H]2O)cccc1C3=O | Active | Non-toxic | Active | Active | inactive | Active | Non-toxic | Non-toxic | – | –
3 | CC1(C)CC(O)CC(C)(C)N1[O] | – | – | – | – | – | – | – | – | Active | –
4 | Cc1cc(O[C@@H]2O[C@@H](C)[C@H](O)[C@@H](O)[C@H]2O)c2c3c(c(O[C@@H]4O[C@@H](C)[C@H](O)[C@@H](O)[C@H]4O)cc2c1)C(=O)c1c(O)cccc1C3=O | – | – | – | – | – | – | – | – | – | 15 µM

From ChEMBL document CHEMBL3351910, “Two new antioxidant actinosporin analogues from the calcium alginate beads culture of sponge-associated Actinokineospora sp. strain EG49” (Bioorg Med Chem Lett, 2014)
